Consider 2 compounds from patent publication US9339487B2, “Dry powder pharmaceutical composition for inhalation” (priority 2008, dated 2016).

The test system of data set [1] is influenza A or B virus infection. The data set can be described thus: Test of comparison with oseltamivir phosphate for child patients. In kind it is in vivo, human.
The next data set in a line: clinical. It counts as in vivo, human. The settings on record: for fe0-144 h [%]: cumulative urinary recovery until 144 hours; for fe0-144 h [%] / Cmax / half-life / AUC(0-inf): geometric mean; for Tmax / Cmax / half-life / AUC(0-inf): male, human, in vivo; for Tmax: inhaled or intranasal, single inhaled dose of medicinal component, plasma, median; for AUC(0-inf): read-out: AUC0-inf [ng/mL]. The procedure: The medicinal component was administered in a single inhaled dose of 80 mg or 120 mg to healthy adult male subjects, and the pharmacokinetics of the medicinal component were evaluated. In addition, the pharmacokinetics of the Compound (III), an active metabolite of the medicinal component, were also determined.
(§1) The administration was performed using the composition prepared according to Example 41.

The test system of data set [2] is influenza A or B virus infection. In kind it is in vivo, human. The settings on record: adult patients.
The test system is the same in data set [3]. In kind it is in vivo, human.
The format of data set [4] is in vivo, human. Here is the method: The medicinal component was administered in a single inhaled dose of 5 mg, 10 mg, 20 mg, or 40 mg to healthy adult male subjects, and the pharmacokinetics of the medicinal component and the compound (III), which is an active metabolite of the medicinal component, were evaluated.
as §1

Where two headings read alike, the source gives them in different places.

For orientation: Tmax means the time at which the peak concentration occurs. A word on the Cmax: it is the highest concentration seen after dosing. The half-life is the time in which the quantity being followed falls by half. Low values mean fast loss, high ones slow loss.

On to `CCCCCCCC(=O)OC[C@@H](O)[C@@H](OC)[C@@H]1OC(C(=O)O)=C[C@H](NC(=N)N)[C@H]1NC(C)=O` [Medicinal component, (2R,3R,4S)-3-acetamido-4-guanidino-2-[(1R,2R)-2-hydroxy-1-methoxy-3-(octanoyloxy)propyl]-3,4-dihydro-2H-pyran-6-carboxylic acid], for which the “duration of the illness compared with the oseltamivir phosphate group” value in data set [1] (child patients, each of the 20 mg group and the 40 mg group) is on record as “shorter”. Further, in “clinical” (80 mg group), the “fe0-144 h [%]” value came out at 3.5%, the time of peak concentration (Tmax) came to 0.5 h, the peak level (Cmax) was 0.335 µg/mL and the half-life was 5.66 h. Moreover, the AUC(0-inf) in the data set “clinical” (80 mg group) stood at 1.27 µg·h/mL. In addition, in “clinical” (120 mg group), the “fe0-144 h [%]” value was 2.7%, the Tmax is 0.5 h, the concentration peaked (Cmax) at 0.412 µg/mL and the half-life was 2.87 h. Moreover, the AUC(0-inf) in the data set “clinical” (120 mg group) amounted to 1.56 µg·h/mL. For the same compound, the “upper limit of the 95% confidence interval for the difference between the median values” in data set [2] (every dose group (20 mg, 40 mg), non-inferiority margin 18 hours) is recorded as “less than 18 hours”. In addition, in data set [3] (human, in vivo), the “Difference (95% confidence interval, hours) in median value from the oseltamivir phosphate group” value is −1.4(−27.6 to 7.3) hours and the “duration of influenza illness compared with the oseltamivir phosphate group” value is “almost equal”. For the same compound, the “time after administration at which plasma concentration was less than the quantification lower limit” value in data set [4] (each dose group (5, 10, 20, 40 mg), single inhaled dose) is at least 24 h. In data set [4] (single inhaled dose 5, 10, 20 or 40 mg), the “dose proportionality of pharmacokinetic parameters (Cmax, AUC0-tz, AUC0-inf, Ae0-144h of medicinal component; Cmax, Ae0-144h of compound (III))” value was “Dose proportionality was observed”. Besides, in data set [4] (urinary excretion, single inhaled dose 5 to 40 mg), the “time after administration at which almost not detected in urine” value is at least 24 h.

With `CCOC(=O)C1=C[C@@H](OC(CC)CC)[C@H](NC(C)=O)[C@@H](N)C1` [Oseltamivir phosphate, oseltamivir phosphate, reference compound], the “Median value (hours) of the duration of influenza illness” value in data set [1] (child patients (9 or less years old), 2 mg/kg twice daily for 5 days) was found to be 87.3 h; in data set [2] (75 mg twice daily for 5 days), 73.6 h; in data set [3] (75 mg twice daily for 5 days), 87.4 h.
